In patent publication US10758534B2 (Vertex Pharmaceuticals Incorporated, priority 2014, dated 2020):

Molecular target: T1, F508del (Homo sapiens, UniProt P13569, DEL508-508)
T1 construct: expressed in transfected cells
Assay: Protocol 2: FRET membrane potential optical assay (VIPR), identification of correction compounds
Format: cell-based
Conditions: F508del CFTR modulator activity; compounds of Table 1; read-out: EC30
How it was run: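 Single-addition HTS format: F508del-expressing NIH3T3 cells pre-incubated 16 hrs at 37° C. ± compound, with 27° C. culture as positive control. Channel activation by forskolin 10 μM and genistein 20 μM upon switch to gluconate bath, pH 7.4; read-out is FRET-based depolarization signal.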

T1 sequence (P13569 with tags, fused parts or gaps DEL508-508): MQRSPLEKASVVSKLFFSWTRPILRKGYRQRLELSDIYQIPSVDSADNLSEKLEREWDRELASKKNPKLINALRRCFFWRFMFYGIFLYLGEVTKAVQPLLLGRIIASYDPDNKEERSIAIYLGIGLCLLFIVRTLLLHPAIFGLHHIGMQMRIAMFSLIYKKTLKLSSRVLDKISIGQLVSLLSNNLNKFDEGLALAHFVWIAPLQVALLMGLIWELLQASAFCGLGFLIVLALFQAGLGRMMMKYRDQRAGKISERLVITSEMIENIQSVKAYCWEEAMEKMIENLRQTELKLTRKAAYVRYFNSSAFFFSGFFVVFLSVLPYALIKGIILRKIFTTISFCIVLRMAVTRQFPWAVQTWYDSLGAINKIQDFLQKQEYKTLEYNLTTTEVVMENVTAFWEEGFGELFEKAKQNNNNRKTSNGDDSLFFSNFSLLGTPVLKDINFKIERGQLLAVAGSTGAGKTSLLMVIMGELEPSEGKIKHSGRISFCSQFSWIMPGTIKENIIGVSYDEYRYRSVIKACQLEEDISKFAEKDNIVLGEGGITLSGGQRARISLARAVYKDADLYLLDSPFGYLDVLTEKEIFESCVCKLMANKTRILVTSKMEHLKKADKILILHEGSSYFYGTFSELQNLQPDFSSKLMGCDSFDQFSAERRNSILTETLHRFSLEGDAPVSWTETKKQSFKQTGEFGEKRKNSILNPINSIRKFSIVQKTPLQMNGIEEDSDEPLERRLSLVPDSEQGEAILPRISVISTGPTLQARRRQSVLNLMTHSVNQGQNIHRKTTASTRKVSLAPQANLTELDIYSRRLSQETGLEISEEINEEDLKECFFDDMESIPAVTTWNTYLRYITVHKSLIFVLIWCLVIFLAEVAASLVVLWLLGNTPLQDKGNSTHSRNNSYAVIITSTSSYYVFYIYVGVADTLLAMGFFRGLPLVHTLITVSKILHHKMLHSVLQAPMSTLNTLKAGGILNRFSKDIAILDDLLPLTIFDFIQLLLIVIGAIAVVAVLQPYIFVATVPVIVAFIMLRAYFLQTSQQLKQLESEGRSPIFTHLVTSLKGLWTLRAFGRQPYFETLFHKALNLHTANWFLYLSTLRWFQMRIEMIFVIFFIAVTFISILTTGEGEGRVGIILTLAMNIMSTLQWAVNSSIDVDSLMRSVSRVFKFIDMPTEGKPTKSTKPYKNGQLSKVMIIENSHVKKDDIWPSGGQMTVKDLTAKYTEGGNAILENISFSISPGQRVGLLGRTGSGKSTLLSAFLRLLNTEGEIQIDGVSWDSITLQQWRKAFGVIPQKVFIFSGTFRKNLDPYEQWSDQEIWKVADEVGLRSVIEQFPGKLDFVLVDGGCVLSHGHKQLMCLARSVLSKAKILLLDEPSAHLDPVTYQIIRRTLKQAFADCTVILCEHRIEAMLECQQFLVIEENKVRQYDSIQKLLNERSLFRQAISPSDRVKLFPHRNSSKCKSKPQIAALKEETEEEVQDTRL

Compound | EC30
CC1CN(c2ncccc2C(=O)NS(=O)(=O)c2cccc(NC(C)C)n2)C(C)(C)C1 (centres unmarked) [Compound 2200, N—[[6-(isopropylamino)-2-pyridyl]sulfonyl]-2-(2,2,4-trimethylpyrrolidin-1-yl)pyridine-3-carboxamide] | 3000 to 10000 nM
CC(C)COc1cc(F)cc(-c2ccc(C(=O)NS(=O)(=O)c3cccc(N)n3)c(N3CC(C(C)C)CC3(C)C)n2)c1 (centres unmarked) [Compound 2201, N-[(6-amino-2-pyridyl)sulfonyl]-6-(3-fluoro-5-isobutoxy-phenyl)-2-(4-isopropyl-2,2-dimethyl-pyrrolidin-1-yl)pyridine-3-carboxamide] | < 3000 nM
CC1CN(c2ncccc2C(=O)NS(=O)(=O)c2cccc(NC3CCCCCCC3)n2)C(C)(C)C1 (centres unmarked) [Compound 2202, N—[[6-(cyclooctylamino)-2-pyridyl]sulfonyl]-2-(2,2,4-trimethylpyrrolidin-1-yl)pyridine-3-carboxamide] | < 3000 nM
Cc1cccc(-c2ccc(C(=O)NS(=O)(=O)c3cccc(N)n3)c(N3C[C@@H](C)CC3(C)C)n2)c1O [Compound 2203, N-[(6-amino-2-pyridyl)sulfonyl]-6-(2-hydroxy-3-methyl-phenyl)-2-[(4S)-2,2,4-trimethylpyrrolidin-1-yl]pyridine-3-carboxamide] | < 3000 nM
CC(C)COc1cc(F)cc(-c2ccc(C(=O)NS(=O)(=O)c3cccc(N)n3)c(N3CCC[C@H]3C(=O)OC(C)(C)C)n2)c1 [Compound 2204, tert-butyl (2S)-1-[3-[(6-amino-2-pyridyl)sulfonylcarbamoyl]-6-(3-fluoro-5-isobutoxy-phenyl)-2-pyridyl]pyrrolidine-2-carboxylate] | < 3000 nM
Cc1ccc(F)c(-c2ccc(C(=O)NS(=O)(=O)c3cccnc3N)c(N3C[C@@H](C)CC3(C)C)n2)c1 [Compound 2205, N-[(2-amino-3-pyridyl)sulfonyl]-6-(2-fluoro-5-methyl-phenyl)-2-[(4S)-2,2,4-trimethylpyrrolidin-1-yl]pyridine-3-carboxamide] | < 3000 nM
CC1CN(c2ncccc2C(=O)NS(=O)(=O)c2cccc(NCCOc3ccccc3)n2)C(C)(C)C1 (centres unmarked) [Compound 2206, N—[[6-(2-phenoxyethylamino)-2-pyridyl]sulfonyl]-2-(2,2,4-trimethylpyrrolidin-1-yl)pyridine-3-carboxamide] | < 3000 nM
CCOc1ccc(-c2ccc(C(=O)NS(=O)(=O)c3ccc[nH]c3=O)c(N3C[C@@H](C)CC3(C)C)n2)cc1 [Compound 2207, 6-(4-ethoxyphenyl)-N-[(2-oxo-1H-pyridin-3-yl)sulfonyl]-2-[(4S)-2,2,4-trimethylpyrrolidin-1-yl]pyridine-3-carboxamide] | < 3000 nM
CC1CN(c2ncccc2C(=O)NS(=O)(=O)c2cccc(N3CCN(c4ccccc4)CC3)n2)C(C)(C)C1 (centres unmarked) [Compound 2208, N—[[6-(4-phenylpiperazin-1-yl)-2-pyridyl]sulfonyl]-2-(2,2,4-trimethylpyrrolidin-1-yl)pyridine-3-carboxamide] | < 3000 nM
CC(C)COc1cc(F)cc(-c2ccc(C(=O)NS(=O)(=O)N3CC(N)CC(F)(F)C3)c(N3C[C@@H](C)CC3(C)C)n2)c1 (stereo partly drawn) [Compound 2209, N-[(5-amino-3,3-difluoro-1-piperidyl)sulfonyl]-6-(3-fluoro-5-isobutoxy-phenyl)-2-[(4S)-2,2,4-trimethylpyrrolidin-1-yl]pyridine-3-carboxamide] | < 3000 nM
CC1CN(c2ncc(-c3cc(OC(C)C)ccc3Cl)cc2C(=O)NS(=O)(=O)c2cccc(N)n2)C(C)(C)C1 (centres unmarked) [Compound 2210, N-[(6-amino-2-pyridyl)sulfonyl]-5-(2-chloro-5-isopropoxy-phenyl)-2-(2,2,4-trimethylpyrrolidin-1-yl)pyridine-3-carboxamide] | < 3000 nM
CC1CN(c2ncccc2C(=O)NS(=O)(=O)c2cccc(OC3CCC4CCCCC4C3)n2)C(C)(C)C1 (centres unmarked) [Compound 2211, N-[(6-decalin-2-yloxy-2-pyridyl)sulfonyl]-2-(2,2,4-trimethylpyrrolidin-1-yl)pyridine-3-carboxamide] | < 3000 nM
CC(Oc1nc(N2C[C@@H](C)CC2(C)C)c(C(=O)NS(=O)(=O)c2cccc(N)n2)cc1F)c1ccncc1 (stereo partly drawn) [Compound 2212, N-[(6-amino-2-pyridyl)sulfonyl]-5-fluoro-6-[1-(4-pyridyl)ethoxy]-2-[(4S)-2,2,4-trimethylpyrrolidin-1-yl]pyridine-3-carboxamide] | 3000 to 10000 nM
CCOc1ccc(Nc2cccc(S(=O)(=O)NC(=O)c3cccnc3N3CC(C)CC3(C)C)n2)cc1 (centres unmarked) [Compound 2214, N—[[6-(4-ethoxyanilino)-2-pyridyl]sulfonyl]-2-(2,2,4-trimethylpyrrolidin-1-yl)pyridine-3-carboxamide] | < 3000 nM
Cc1noc(C)c1-c1ccc(C(=O)NS(=O)(=O)c2cccnc2N)c(N2C[C@@H](C)CC2(C)C)n1 [Compound 2215, N-[(2-amino-3-pyridyl)sulfonyl]-6-(3,5-dimethylisoxazol-4-yl)-2-[(4S)-2,2,4-trimethylpyrrolidin-1-yl]pyridine-3-carboxamide] | 3000 to 10000 nM
CC(C)COc1cc(F)cc(-c2ccc(C(=O)NS(=O)(=O)c3cccc(N)n3)c(N3CCC[C@@H]3C(=O)OC(C)(C)C)n2)c1 [Compound 2216, tert-butyl (2R)-1-[3-[(6-amino-2-pyridyl)sulfonylcarbamoyl]-6-(3-fluoro-5-isobutoxy-phenyl)-2-pyridyl]pyrrolidin-2-carboxylate] | < 3000 nM
CC1CN(c2ncccc2C(=O)NS(=O)(=O)c2cccc(Nc3ccc(Cl)cc3Cl)n2)C(C)(C)C1 (centres unmarked) [Compound 2217, N—[[6-(2,4-dichloroanilino)-2-pyridyl]sulfonyl]-2-(2,2,4-trimethylpyrrolidin-1-yl)pyridine-3-carboxamide] | < 3000 nM
CC1CN(c2ncccc2C(=O)NS(=O)(=O)c2cccc(NC3CCCCC3C)n2)C(C)(C)C1 (centres unmarked) [Compound 2218, N—[[6-[(2-methylcyclohexyl)amino]-2-pyridyl]sulfonyl]-2-(2,2,4-trimethylpyrrolidin-1-yl)pyridine-3-carboxamide] | < 3000 nM
COc1ccc(-c2ccc(C(=O)NS(=O)(=O)c3ccc[nH]c3=O)c(N3C[C@@H](C)CC3(C)C)n2)cc1F [Compound 2219, 6-(3-fluoro-4-methoxy-phenyl)-N-[(2-oxo-1H-pyridin-3-yl)sulfonyl]-2-[(4S)-2,2,4-trimethylpyrrolidin-1-yl]pyridine-3-carboxamide] | 3000 to 10000 nM
C[C@@H]1CN(c2nc(-c3cccc(C(F)(F)F)c3)ccc2C(=O)NS(=O)(=O)N2CC[C@H](N)C2)C(C)(C)C1 [Compound 2220, N-[(3S)-3-aminopyrrolidin-1-yl]sulfonyl-6-[3-(trifluoromethyl)phenyl]-2-[(4S)-2,2,4-trimethylpyrrolidin-1-yl]pyridine-3-carboxamide] | 3000 to 10000 nM
CCC(COC)Nc1cccc(S(=O)(=O)NC(=O)c2cccnc2N2CC(C)CC2(C)C)n1 (centres unmarked) [Compound 2221, N—[[6-[1-(methoxymethyl)propylamino]-2-pyridyl]sulfonyl]-2-(2,2,4-trimethylpyrrolidin-1-yl)pyridine-3-carboxamide] | 3000 to 10000 nM
COc1cccc(-c2ccc(C(=O)NS(=O)(=O)c3ccc[nH]c3=O)c(N3C[C@@H](C)CC3(C)C)n2)c1F [Compound 2222, 6-(2-fluoro-3-methoxy-phenyl)-N-[(2-oxo-1H-pyridin-3-yl)sulfonyl]-2-[(4S)-2,2,4-trimethylpyrrolidin-1-yl]pyridine-3-carboxamide] | 3000 to 10000 nM
C[C@@H]1CN(c2nc(-c3ccc(OC(F)(F)F)cc3)ccc2C(=O)NS(=O)(=O)c2cccnc2N)C(C)(C)C1 [Compound 2223, N-[(2-amino-3-pyridyl)sulfonyl]-6-[4-(trifluoromethoxy)phenyl]-2-[(4S)-2,2,4-trimethylpyrrolidin-1-yl]pyridine-3-carboxamide] | < 3000 nM
CC(C)COc1cc(F)cc(-c2ccc(C(=O)NS(=O)(=O)c3cccc(N)n3)c(N3CC4CC(C3)C4C)n2)c1 (centres unmarked) [Compound 2224, N-[(6-amino-2-pyridyl)sulfonyl]-6-(3-fluoro-5-isobutoxy-phenyl)-2-(6-methyl-3-azabicyclo[3.1.1]heptan-3-yl)pyridine-3-carboxamide] | < 3000 nM
Cc1cccc(-c2ccc(C(=O)NS(=O)(=O)N3CC[C@H](N)C3)c(N3C[C@@H](C)CC3(C)C)n2)c1C [Compound 2225, N-[(3S)-3-aminopyrrolidin-1-yl]sulfonyl-6-(2,3-dimethylphenyl)-2-[(4S)-2,2,4-trimethylpyrrolidin-1-yl]pyridine-3-carboxamide] | 3000 to 10000 nM
CCCC(C)N1CCN(c2cccc(S(=O)(=O)NC(=O)c3cccnc3N3CC(C)CC3(C)C)n2)CC1 (centres unmarked) [Compound 2226, N—[[6-[4-(1-methylbutyl)piperazin-1-yl]-2-pyridyl]sulfonyl]-2-(2,2,4-trimethylpyrrolidin-1-yl)pyridine-3-carboxamide] | 3000 to 10000 nM
CCOc1cc(C)c(-c2ccc(C(=O)NS(=O)(=O)c3cccc(N)n3)c(N3C[C@@H](C)CC3(C)C)n2)cc1C [Compound 2227, N-[(6-amino-2-pyridyl)sulfonyl]-6-(4-ethoxy-2,5-dimethyl-phenyl)-2-[(4S)-2,2,4-trimethylpyrrolidin-1-yl]pyridine-3-carboxamide] | < 3000 nM
CC(C)COc1cc(F)cc(-c2ccc(C(=O)NS(=O)(=O)N3CC[C@H](F)C3)c(N3C[C@@H](C)CC3(C)C)n2)c1 [Compound 2228, 6-(3-fluoro-5-isobutoxy-phenyl)-N-[(3S)-3-fluoropyrrolidin-1-yl]sulfonyl-2-[(4S)-2,2,4-trimethylpyrrolidin-1-yl]pyridine-3-carboxamide] | < 3000 nM
C[C@@H]1CN(c2nc(-c3ccc(F)c(F)c3)ccc2C(=O)NS(=O)(=O)N2CC[C@H](N)C2)C(C)(C)C1 [Compound 2229, N-[(3S)-3-aminopyrrolidin-1-yl]sulfonyl-6-(3,4-difluorophenyl)-2-[(4S)-2,2,4-trimethylpyrrolidin-1-yl]pyridine-3-carboxamide] | 3000 to 10000 nM
